Source: patent publication US20250263396A1, “CRYSTALLINE FORMS OF 3-(5-(2-HYDROXY-2- METHYLPROPOXY)-6-METHYPYRAZIN-2-YL)-1H-INDOLE-7-CARBONITRILE” (NIDO BIOSCIENCES, INC., priority 2024, published 2025)
Entries after “also recorded” stand apart in the source; their conditions may differ.

Tests used:
[1] = Competitive equilibration experiments; conditions: 2-MeTHF
Protocol: Relative stability of the anhydrate Forms A, C, H and J was investigated with competitive equilibration experiments.
Relative stability of the anhydrates Forms C, K and L was investigated with competitive equilibration experiments.
Relative stability of the anhydrates Form C and Form P was systematically investigated with competitive equilibration experiments.
About 5 mg of Form C and about 5 mg of Form P were added to 0.25 mL of saturated solutions of selected solvents. Obtained suspensions were stirred at 25° C., 50° C. and 70° C. for 4 days, respectively. Solid parts (wet cakes) were isolated by centrifugation filtration and investigated by XRPD.
About 10 mg of Form C and about 10 mg of Form P were added to 0.5 mL saturated solutions of selected solvents. Obtained suspensions were stirred at 80/C and 90 C, respectively. Solid parts (wet cakes) were be isolated by centrifugation filtration and investigated by XRPD.
About 3 mg of the Form P and 3 mg of the mixture of Form P and Form J were added to 0.2 mL of saturated solutions of selected solvents. Obtained suspensions were stirred at 25° C., 50° C. and 70° C. for 4 days, respectively. Solid parts (wet cakes) were isolated by centrifugation filtration and investigated by XRPD.
About 3 mg of Form P and 3 mg of the physical mixture of Form P and Form R were added to 0.2 mL of saturated solutions of 2-MeTHF. Obtained suspensions were stirred at 25° C., 50° C. and 70° C., respectively. Solid parts (wet cakes) were isolated by centrifugation filtration and investigated by XRPD.
About 1.5 mg of Form P, 1.5 mg of Form X and 1.5 mg Form Y were added to 0.15 mL saturated solution of 2-MeTHF. Obtained suspensions were stirred at 25° C., 50° C. and 70° C., respectively. Solid parts (wet cake) were isolated by centrifugation filtration and investigated by XRPD.

[2] = tested on: LNCaP cells expressing ARR2PB-FireflyLuc and CMV-RenillaLuc; experiment: LNCaP ARR2PB-FireflyLuc reporter assay; type: cell-based; conditions: Homo sapiens, +/−0.5 nM DHT, 48 h at 37° C.
Protocol: LNCaP cells expressing ARR2PB-FireflyLuc and CMV-RenillaLuc were treated with indicated concentrations of the test compound, enzalutamide (negative control), or DHT (positive control)+/−0.5 nM DHT for 48 h at 37° C. […] signals were read with the ImageXpress Micro Confocal System. Remaining activity (antagonist mode) was calculated as % Remaining Activity=100×[(Readsample−LCave)/(HCave−LCave)] where HC is cells treated with 0.5 nM DHT only and LC is cells treated with 10 uM enzalutamide+0.5 nM DHT. Activation (agonist mode) was calculated as % Activation=100×[(ReadSample−LCave)/(HCave−LCave)] where HC is cells treated with 1 uM DHT and LC is cells treated with DMSO. Dose response curves and IC50 values were calculated using non-linear regression analysis in XLfit.

[3] = Equilibration with solvents; type: physicochemical
Protocol: Obtained suspensions were filtered through a 0.45 μm nylon membrane filter by centrifugation at 14,000 rpm. Solid parts (wet cakes) were investigated by XRPD. For samples with different XRPD patterns, additional analysis including DSC, TGA, ^1H-NMR were performed.
(§1) Obtained suspensions were filtered through a 0.45 μm nylon membrane filter by centrifugation at 14,000 rpm.
as §1

[4] = Exposure to humidity or ambient condition; type: physicochemical
[5] = Form conversion kinetics from Form C to Form P; type: physicochemical
Protocol: To investigate form conversion kinetics from Form C to Form P, equilibration experiments with Form C in pH 1.2 HCl buffer, 2-MeTHF, heptane and water were conducted. In 2-MeTHF, Form C converted to Form P within 2 h at 25° C. In pH 1.2 HCl buffer, Form C converted to Form P after 31 h at 37° C. In heptane, Form C converted to Form P completely after 1 week at 25° C. In water, Form C converted to Form P completely after 4 days at 25° C.

[6] = Competitive water activity experiments; conditions: whole range of water activity (0≤a.w.≤1)
[7] = Dry grinding simulation experiments; type: physicochemical; conditions: ground manually with mortar and pestle, 5 min
Protocol: About 10 mg of Form P was ground manually with a mortar and a pestle for 1, 3 and 5 minutes.
About 10 mg of Form C was ground manually with a mortar and a pestle for 5 minutes.

[8] = Wet granulation simulation experiments; type: physicochemical
Protocol: Water or ethanol was added drop wise to about 10 mg of Form P until the sample is wetted sufficiently. Wet sample was ground gently with in a mortar and a pestle. Post granulation sample was dried under ambient condition for 10 min.
Water or ethanol was added drop wise to about 10 mg of Form C until the sample is wetted sufficiently. Wet sample was ground gently with in a mortar and a pestle. Post granulation sample was dried under ambient condition for 5 min.

[9] = Form change on heating, dehydration or desolvation (TGA, DSC, variable temperature XRPD); type: physicochemical; conditions: DSC thermogram and VT-XRPD
Protocol: Relative stability of the anhydrates Form R and Form P was investigated by variable temperature XRPD and competitive equilibration experiments.
Relative stability of the anhydrates Form B, Form X, Form Y and Form C was investigated by variable temperature XRPD. Form B converted to Form X, Form Y and Form C after heating to 150° C., 176° C. and 180° C., respectively.

With `Cc1nc(-c2c[nH]c3c(C#N)cccc23)cnc1OCC(C)(C)O` [3-(5-(2-hydroxy-2-methylpropoxy)-6-methylpyrazin-2-yl)-1H-indole-7-carbonitrile] the “XRPD after competitive equilibration” value ([1]; 25° C. for 3 days) was “Form P”, the “XRPD after competitive equilibration” value ([1]; 50° C. for 3 days) was “Form P” and the “XRPD after competitive equilibration” value ([1]; 70° C. for 1 week) was “Form P”. For the same molecule, the “XRPD after competitive equilibration” value ([1]; 70° C. for 3 days) was “Form P + one peak” and the IC50 [2] was 50 nM.

In the case of `Cc1nc(-c2c[nH]c3c(C#N)cccc23)cnc1OCC(C)(C)O` [Amorphous form, 3-(5-(2-hydroxy-2-methylpropoxy)-6-methylpyrazin-2-yl)-1H-indole-7-carbonitrile], the XRPD after equilibration ([3]; 2-MeTHF, 25° C.) is reported as “Form P”, the XRPD after equilibration ([3]; 2-MeTHF/heptane (v:v = 1:1), 25° C.) is reported as “Form P” and the XRPD after equilibration ([3]; 2-MeTHF/heptane (v:v = 3:1), 25° C.) is reported as “Form P”. The XRPD after equilibration ([3]; 2-Propanol, 25° C.) was “Form P”, the XRPD after equilibration ([3]; Acetone, 25° C.) was “Form P” and the XRPD after equilibration ([3]; Acetone/water (v:v = 30:70) a.w. = 0.92, 25° C.) was “Form P”. The XRPD after equilibration ([3]; Acetonitrile, 25° C.) was “Form P”, the XRPD after equilibration ([3]; DMSO/water (v:v = 40:60) a.w. = 0.77, 25° C.) was “Form P” and the XRPD after equilibration ([3]; Ethanol, 25° C.) was “Form P”. For the same molecule, the XRPD after equilibration ([3]; Ethanol/water (v:v = 40:60) a.w. = 0.91, 25° C.) was “Form P”, the XRPD after equilibration ([3]; Ethyl acetate, 25° C.) was “Form P” and the XRPD after equilibration ([3]; Isopropyl acetate, 25° C.) was “Form P”. For the same molecule, the XRPD after equilibration ([3]; MEK, 25° C.) was “Form P”, the XRPD after equilibration ([3]; MTBE, 25° C.) was “Form P” and the XRPD after equilibration ([3]; Methanol, 25° C.) was “Form B”. For the same molecule, the XRPD after equilibration ([3]; THF, 25° C.) was “Form I”, the XRPD after equilibration ([3]; Toluene, 25° C.) was “Form C” and the XRPD after equilibration ([3]; heptane, 25° C.) was “Form C”. For the same molecule, the XRPD after equilibration ([3]; pH 1.2 HCl/KCl buffer, 25° C.) was “Form P”, the XRPD after equilibration ([3]; water, 25° C.) was “Form P” and the “Form after humidity exposure” value ([4]; exposure to high humidity) was “crystallized to Form N”.

For `Cc1nc(-c2c[nH]c3c(C#N)cccc23)cnc1OCC(C)(C)O` [Form C, 3-(5-(2-hydroxy-2-methylpropoxy)-6-methylpyrazin-2-yl)-1H-indole-7-carbonitrile], the “Time to conversion to Form P” value ([5]; 2-MeTHF, 25° C.) was ≤ 2 h, the “Time to complete conversion to Form P” value ([5]; heptane, 25° C.) was 1 week and the “Time to conversion to Form P” value ([5]; pH 1.2 HCl buffer, 37° C.) was 31 h. For the same molecule, the “Time to complete conversion to Form P” value ([5]; water, 25° C.) was 4 days, the “Relative stability in water activity experiments” value [6] was “stable” and the “Comments (crystallinity)” value [7] was “Crystallinity decreased slightly”. The XRPD [7] was “Form C”, the “Comments (crystallinity)” value ([8]; granulation solvent Ethanol) was “Crystallinity decreased” and the XRPD ([8]; granulation solvent Ethanol) was “Form C”. For the same molecule, the “Comments (crystallinity)” value ([8]; granulation solvent Water) was “Crystallinity decreased slightly” and the XRPD ([8]; granulation solvent Water) was “Form C”.

With `Cc1nc(-c2c[nH]c3c(C#N)cccc23)cnc1OCC(C)(C)O` [Form K, 3-(5-(2-hydroxy-2-methylpropoxy)-6-methylpyrazin-2-yl)-1H-indole-7-carbonitrile] the “Form after humidity exposure” value ([4]; 25° C./92% RH for 6 days) was “reverts back to Form B; also recorded: converts to hydrate Form B” and the “Form after melting and re-crystallization” value [9] was “converts to Form L”.

In the case of `Cc1nc(-c2c[nH]c3c(C#N)cccc23)cnc1OCC(C)(C)O` [Form V, 3-(5-(2-hydroxy-2-methylpropoxy)-6-methylpyrazin-2-yl)-1H-indole-7-carbonitrile], the “Time to conversion to Form W” value ([4]; ambient condition (20° C.-27° C., 50% RH-70% RH)) is reported as ≤ 12 h.
